Columns and labels:
Type in all cases: cell-based, human
KIR2DL2 promoter = KIR2DL2 promoter reporter construct assay in T cells
Experimental: (§1) Reporter construct assays. Amplified KIR promoter fragments were subcloned into the EcoRI site of the promoterless pmaxFP-Yellow-PRL vector (Amaxa GmbH). Plasmids were purified using QIAGEN EndoFree Plasmid Kits (QIAGEN), and 2 μg of DNA transfected into untreated or 5-azaC treated human T cells using the human T cell nucleofector kit (Amaxa GmbH) and the manufacturer's protocol. Controls included cotransfection with pmaxGFP (Amaxa GmbH) and transfection with the promoterless reporter vector. Fluorescence was measured by flow cytometry. Site directed mutagenesis. Mutations were introduced into the same pmaxFP-Yellow-PRL KIR2DL2 and KIR2DL4 promoter constructs using the QuickChange Multi Site-Directed Mutagenesis Kit (Stratagene, La Jolla, Calif.). The changes include a […]→[…] mutation at −78→−71 in the Sp1 site, a CCC→ACA mutation at −61→−59 in the Ets1 site, or both, in the KIR2DL2 promoter, and a TTT→GGG mutation at −73→−71 in the Ets1 site, a CCC→ACA mutation at −61→−59 in the Ets1 site, or both, in the KIR2DL4 promoter. A separate G→A mutation in the AML site was also introduced into both promoters at −98 (16; 17). The constructs were transfected in to PHA stimulated, 5-azaC treated T cells as above. Controls included transfection with pmaxGFP.
(§2) Effects of 5-azaC on KIR transcriptional activator-DNA interactions. […]

KIR = KIR expression on 5-azaC treated T cells, anti-KIR antibody cocktail, flow cytometry
Source text: Antibodies: Unconjugated and PE-conjugated anti-CD158d (KIR2DL4) were purchased from R&D Systems, Minneapolis, Minn. and unconjugated and PE-conjugated anti-NKB1 (KIR3DL1), anti-perforin antibodies and isotype matched control antibodies were obtained from BD PharMingen, San Diego Calif. PE-conjugated anti-CD158i (KIR2DS4) was obtained from Beckman Coulter (Fullerton Calif.). Anti-CD4-Cy5, anti-CD8-FITC, and PE-conjugated antibodies to and KIR2DS2 (anti-CD158b) were obtained from BD PharMingen, KIR2DL1/2DS2 (CD158a/h) and KIR3DL1/3DS1 (CD158e1/e2) from Beckman Coulter, and 2DL1/2DL3/2DS2 (anti-CD158 b1/b2/j (GL183) was purchased from R&D Systems. Minneapolis, Minn.). Ten microliters of each PE-conjugated anti-KIR antibody were mixed to form a “cocktail” used to stain the cells. […] Following staining, the cells were fixed in 1% paraformaldehyde and kept at 4° C. until analyzed. […]
CD4+ and CD8+ T cells demethylate and express KIR genes following treatment with the DNA methylation inhibitor 5-azaC. PBMC from 11 healthy subjects were stimulated with PHA, treated with 5-azaC, then KIR expression was measured on untreated and treated CD4+ and CD8+ cells using a “cocktail” of anti-KIR antibodies and flow cytometry as described in Materials and Methods above.

KIR2DL4 promoter = KIR2DL4 promoter reporter construct assay in T cells
Experimental: as §1, §2

[1] = 5-azaC treated vs untreated T cells, FIG. 29b, p<0.005
[2] = relative to untreated T cells, FIG. 29c

Question: For `Nc1ncn([C@@H]2O[C@H](CO)[C@@H](O)[C@H]2O)c(=O)n1` [5-azaC, 5-azacytidine], which “increase of KIR2DL2 promoter function” value (KIR2DL2 promoter; [1]) is on record?
Answer: 3-4 fold

Question: What about the “increase of expression of the unmodified KIR2DL2 construct” value (KIR2DL2 promoter; [2]) of the same compound?
Answer: ~2 fold

Question: And the “expression of additional KIR proteins on T cells” value (KIR)?
Answer: induced expression of additional KIR proteins including KIR3DL1, KIR2DS4 and KIR2DL2/2DL3

Question: What about the “KIR expression on CD4+ and CD8+ T cells” value (KIR; 11 healthy subjects, PHA, anti-KIR cocktail) of the same compound?
Answer: significantly increases KIR expression

Question: What about the “increase of KIR2DL4 promoter function” value (KIR2DL4 promoter; [1]) of the same compound?
Answer: 3-4 fold

Question: And the “increase of expression of the unmodified KIR2DL4 construct” value (KIR2DL4 promoter; [2])?
Answer: ~3 fold

From patent publication US20110256121A1, “METHODS AND KITS FOR DIAGNOSING OR MONITORING AUTOIMMUNE AND CHRONIC INFLAMMATORY DISEASES” (THE REGENTS OF THE UNIVERSITY OF MICHIGAN, priority 2008, published 2011)
